This note sets out measurements from patent US5279956A, “Activated protein C polypeptides and anti-peptide antibodies, diagnostic methods and systems for inhibiting activated protein C” (The Scripps Research Institute, priority 1991, dated 1994).

No end group written: not given here.

The assay deals with T1, APC (Homo sapiens, UniProt P04070).
T1 construct: begins at amino acid residue position 158 and ends at 419; The light chain is 155 amino acid residues in length; tissue Factor IX concentrate from Immuno AG, Vienna; thrombin from Enzyme Research Laboratories
T1 sequence (P04070 212-461): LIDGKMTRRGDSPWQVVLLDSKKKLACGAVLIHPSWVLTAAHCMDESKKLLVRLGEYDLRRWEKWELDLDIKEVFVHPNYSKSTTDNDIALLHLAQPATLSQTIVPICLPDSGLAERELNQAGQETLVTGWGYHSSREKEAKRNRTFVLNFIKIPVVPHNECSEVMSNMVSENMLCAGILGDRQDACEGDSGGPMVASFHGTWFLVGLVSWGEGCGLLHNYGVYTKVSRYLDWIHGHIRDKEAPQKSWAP
T1 sequence (P04070 43-197): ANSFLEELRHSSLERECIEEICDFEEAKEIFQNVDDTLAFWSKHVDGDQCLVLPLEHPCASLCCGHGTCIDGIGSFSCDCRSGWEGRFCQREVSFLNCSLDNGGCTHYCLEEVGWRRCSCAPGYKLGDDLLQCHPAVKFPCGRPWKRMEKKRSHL
Briefly: Xa-1-stage coagulation assay of APC anticoagulant activity. The format is biochemical. As for the experimental part:
For testing the inhibition of the synthetic peptides on APC activity described above, Xa-1-stage coagulation assays were also performed as described. See Seegers et al., Thrombosis Res., 13:233-243 (1978); Marlar et al., supra; and Walker et al., J. Biol. Chem. 265:1484-1489 (1990). […] The resulting admixtures were maintained for seven minutes at 37° C. Separate aliquots of peptides maintained under the same conditions in the absence of APC served as controls for the inhibitory effect of synthetic peptides on APC anticoagulant activity. After the maintenance period, 100 μl of NHP and 100 μl of 200 μg/ml of rabbit brain cephalin (Sigma) were admixed into each peptide admixture and maintained for 200 seconds at 37° C. to form pre-coagulation admixtures. In some experiments, Factor VIII deficient plasma (George King Bio-Medical, Inc.) was used in the place of NHP to determine the effect of Factor VIII on the assay system. Coagulation was then initiated by the admixture of 100 μl of 0.62 nM human activated Factor X (Xa) (Enzyme Research Laboratories, Southbend, Ind.) in TBS-BSA containing 30 mM CaCl2 prewarmed to 37° C. to each of the pre-coagulation admixtures.
The time for clot formation was measured by an Electra 700 Automatic Coagulation Timer (Medical Laboratory Automation, Inc., Mount Vernon, N.Y.). Each peptide's effect was determined in duplicate. The results of the inhibition of APC anticoagulant activity by synthetic peptides as measured in Xa-1-stage coagulation assays are described above and are presented as the mean values obtained with […].
Additional assays were performed to compare the specificity of the inhibitory effect of peptide-(390-404) on APC anticoagulant activity. Both APTT and Xa-1-stage assays were performed with peptide-(390-404) and with the same peptide synthesized in the reverse order, peptide-(404-390), at concentrations of the peptides ranging from 0 μM to 40 μM. In APTT assays performed as described above in the presence of NHP, APC was used at a concentration of 2.5 nM. […]

Turning to “KRNRTFVLNFIKIPV-NH2 [peptide-(311-325), KRNRTFVLNFIKIPV]”, the “effect on APC in Xa1-stage assay” value (up to 100 μM) is listed as “no effect”.
In general, IC50 refers to the concentration that inhibits the measured activity by half. High values mean lower potency, low ones higher potency. The term IC90 denotes the point of the concentration-response curve where the effect stands at 90%. A higher IC90 goes with weaker potency. “YGVYTKVSRYLDWIH-NH2 [peptide-(390-404), YGVYTKVSRYLDWIH]” had an IC50 of 5 µM and an IC90 of 40 µM.
